# Data reported in PubChem BioAssay AID248 (DTP/NCI, 2004).
# Values joined by “and” are separate entries in the source; they are usually repeats but may differ in a detail not shown here. Equal entries are not always repeated. Inconclusive results and toxic doses are left out.
# Tested on: L1210 leukemia ip in BDF1 mice, survival T/C
# Assay: NCI In Vivo Anticancer Drug Screen. Data for tumor model L1210 Leukemia (intraperitoneal) in B6D2F1 (BDF1) mice
# Details: endpoint: mean survival time, higher = longer survival
# Method in brief: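 Ratio derived from survival: compound-dosed mice over vehicle-dosed mice, all bearing a transplantable tumor.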
structure (smiles),measurement,setting,value
[N-]=[N+]=CC(=O)NCC(=O)NN,T/C,"dose: 50.0 mg/kg/injection, schedule: Q01DX Z (sc), vehicle: steriod suspending solution",101 % of control
same,T/C,"dose: 50.0 mg/kg/injection, schedule: Q02DX Z (ip), vehicle: saline",102 % of control
same,T/C,"dose: 50.0 mg/kg/injection, schedule: Q03DX Z (ip), vehicle: saline",101 % of control
same,T/C,"dose: 100.0 mg/kg/injection, schedule: Q01DX001 (ip), vehicle: saline",108 % of control
same,T/C,"dose: 100.0 mg/kg/injection, schedule: Q01DX005 (ip), vehicle: other",114 % of control
same,T/C,"dose: 100.0 mg/kg/injection, schedule: Q01DX009 (ip), vehicle: other",115 % of control
same,T/C,"dose: 100.0 mg/kg/injection, schedule: Q01DX009 (ip), vehicle: saline",119 % of control
same,T/C,"dose: 100.0 mg/kg/injection, schedule: Q01DX Z (sc), vehicle: steriod suspending solution",101 % of control
same,T/C,"dose: 100.0 mg/kg/injection, schedule: Q02DX Z (ip), vehicle: saline",108 % of control
same,T/C,"dose: 100.0 mg/kg/injection, schedule: Q03DX Z (ip), vehicle: saline",108 % of control
same,T/C,"dose: 100.0 mg/kg/injection, schedule: Q## X008 (ip), vehicle: water",98 % of control
same,T/C,"dose: 125.0 mg/kg/injection, schedule: Q01DX006 (iv), vehicle: saline",98 % of control
same,T/C,"dose: 125.0 mg/kg/injection, schedule: Q01DX009 (ip), vehicle: other",118 % of control
same,T/C,"dose: 125.0 mg/kg/injection, schedule: Q01DX009 (sc), vehicle: other",100 % of control
same,T/C,"dose: 125.0 mg/kg/injection, schedule: Q01DX017 (ip), vehicle: saline",121 % of control
same,T/C,"dose: 125.0 mg/kg/injection, schedule: Q01DX Z (ip), vehicle: other",116 % of control
same,T/C,"dose: 200.0 mg/kg/injection, schedule: Q01DX001 (ip), vehicle: saline",110 % of control
same,T/C,"dose: 200.0 mg/kg/injection, schedule: Q01DX Z (ip), vehicle: water",124 % of control
same,T/C,"dose: 200.0 mg/kg/injection, schedule: Q01DX Z (sc), vehicle: steriod suspending solution",98 % of control
same,T/C,"dose: 200.0 mg/kg/injection, schedule: Q03DX Z (ip), vehicle: saline",154 % of control
same,T/C,"dose: 200.0 mg/kg/injection, schedule: Q## X008 (ip), vehicle: water",98 % of control
same,T/C,"dose: 225.0 mg/kg/injection, schedule: Q01DX Z (ip), vehicle: saline",124 % of control
same,T/C,"dose: 225.0 mg/kg/injection, schedule: Q01DX Z (ip), vehicle: water",121 % of control
same,T/C,"dose: 250.0 mg/kg/injection, schedule: Q01DX006 (iv), vehicle: saline",106 % of control
same,T/C,"dose: 250.0 mg/kg/injection, schedule: Q01DX009 (ip), vehicle: other",156 % of control
same,T/C,"dose: 250.0 mg/kg/injection, schedule: Q01DX009 (sc), vehicle: other",108 % of control
same,T/C,"dose: 250.0 mg/kg/injection, schedule: Q01DX017 (ip), vehicle: saline",124 % of control
same,T/C,"dose: 250.0 mg/kg/injection, schedule: Q01DX Z (ip), vehicle: other",123 % of control
same,T/C,"dose: 250.0 mg/kg/injection, schedule: Q02DX005 (ip), vehicle: saline",121 % of control
same,T/C,"dose: 250.0 mg/kg/injection, schedule: Q04DX003 (ip), vehicle: saline",110 % of control
same,T/C,"dose: 250.0 mg/kg/injection, schedule: Q08DX002 (ip), vehicle: other",112 % of control
same,T/C,"dose: 250.0 mg/kg/injection, schedule: Q## X005 (ip), vehicle: saline",111 % of control
same,T/C,"dose: 300.0 mg/kg/injection, schedule: Q01DX009 (sc), vehicle: other",118 % of control
same,T/C,"dose: 375.0 mg/kg/injection, schedule: Q01DX Z (ip), vehicle: other",160 % of control
same,T/C,"dose: 400.0 mg/kg/injection, schedule: Q01DX001 (ip), vehicle: saline",106 % of control
same,T/C,"dose: 400.0 mg/kg/injection, schedule: Q01DX005 (ip), vehicle: other",150 % of control
same,T/C,"dose: 400.0 mg/kg/injection, schedule: Q01DX009 (ip), vehicle: saline",156 % of control
same,T/C,"dose: 400.0 mg/kg/injection, schedule: Q01DX Z (im), vehicle: other",112 % of control
same,T/C,"dose: 400.0 mg/kg/injection, schedule: Q01DX Z (ip), vehicle: other",157 % of control
same,T/C,"dose: 400.0 mg/kg/injection, schedule: Q01DX Z (oral), vehicle: other",102 % of control
same,T/C,"dose: 400.0 mg/kg/injection, schedule: Q01DX Z (oral), vehicle: saline",116 % of control
same,T/C,"dose: 400.0 mg/kg/injection, schedule: Q## X008 (ip), vehicle: water",103 % of control
same,T/C,"dose: 500.0 mg/kg/injection, schedule: Q01DX001 (ip), vehicle: saline",111 % of control and 117 % of control
same,T/C,"dose: 500.0 mg/kg/injection, schedule: Q01DX006 (iv), vehicle: saline",110 % of control
same,T/C,"dose: 500.0 mg/kg/injection, schedule: Q01DX009 (sc), vehicle: other",118 % of control
same,T/C,"dose: 500.0 mg/kg/injection, schedule: Q01DX Z (ip), vehicle: other",118 % of control and 124 % of control
same,T/C,"dose: 500.0 mg/kg/injection, schedule: Q01DX Z (ip), vehicle: water",90 % of control
same,T/C,"dose: 500.0 mg/kg/injection, schedule: Q## X005 (ip), vehicle: saline",114 % of control
same,T/C,"dose: 500.0 mg/kg/injection, schedule: Q## X024 (ip), vehicle: water",112 % of control
same,T/C,"dose: 600.0 mg/kg/injection, schedule: Q01DX009 (ip), vehicle: saline",117 % of control
same,T/C,"dose: 600.0 mg/kg/injection, schedule: Q01DX Z (im), vehicle: other",120 % of control
same,T/C,"dose: 600.0 mg/kg/injection, schedule: Q01DX Z (ip), vehicle: water",150 % of control
same,T/C,"dose: 600.0 mg/kg/injection, schedule: Q01DX Z (sc), vehicle: other",115 % of control
same,T/C,"dose: 600.0 mg/kg/injection, schedule: Q## X008 (ip), vehicle: water",109 % of control
same,T/C,"dose: 750.0 mg/kg/injection, schedule: Q01DX009 (sc), vehicle: other",118 % of control
same,T/C,"dose: 750.0 mg/kg/injection, schedule: Q01DX Z (ip), vehicle: other",123 % of control
same,T/C,"dose: 800.0 mg/kg/injection, schedule: Q01DX Z (im), vehicle: other",101 % of control
same,T/C,"dose: 800.0 mg/kg/injection, schedule: Q01DX Z (ip), vehicle: other",124 % of control
same,T/C,"dose: 800.0 mg/kg/injection, schedule: Q01DX Z (oral), vehicle: other",117 % of control
same,T/C,"dose: 800.0 mg/kg/injection, schedule: Q01DX Z (oral), vehicle: saline",122 % of control
same,T/C,"dose: 800.0 mg/kg/injection, schedule: Q01DX Z (sc), vehicle: other",91 % of control
same,T/C,"dose: 800.0 mg/kg/injection, schedule: Q02DX005 (ip), vehicle: saline",183 % of control
same,T/C,"dose: 800.0 mg/kg/injection, schedule: Q02DX Z (ip), vehicle: other",182 % of control
same,T/C,"dose: 800.0 mg/kg/injection, schedule: Q03DX Z (ip), vehicle: other",150 % of control
same,T/C,"dose: 1000.0 mg/kg/injection, schedule: Q01DX001 (ip), vehicle: saline",115 % of control
same,T/C,"dose: 1000.0 mg/kg/injection, schedule: Q01DX001 (sc), vehicle: other",108 % of control
same,T/C,"dose: 1000.0 mg/kg/injection, schedule: Q01DX006 (iv), vehicle: saline",109 % of control
same,T/C,"dose: 1000.0 mg/kg/injection, schedule: Q01DX Z (ip), vehicle: other",100 % of control
same,T/C,"dose: 1000.0 mg/kg/injection, schedule: Q02DX009 (ip), vehicle: saline",119 % of control
same,T/C,"dose: 1000.0 mg/kg/injection, schedule: Q04DX003 (ip), vehicle: other",162 % of control
same,T/C,"dose: 1000.0 mg/kg/injection, schedule: Q04DX003 (ip), vehicle: saline",156 % of control
same,T/C,"dose: 1000.0 mg/kg/injection, schedule: Q## X005 (ip), vehicle: saline",158 % of control
same,T/C,"dose: 1200.0 mg/kg/injection, schedule: Q02DX Z (ip), vehicle: other",98 % of control
same,T/C,"dose: 1200.0 mg/kg/injection, schedule: Q03DX Z (ip), vehicle: other",156 % of control
same,T/C,"dose: 1250.0 mg/kg/injection, schedule: Q03HX016 (ip), vehicle: saline",105 % of control
same,T/C,"dose: 1500.0 mg/kg/injection, schedule: Q01DX001 (ip), vehicle: other",150 % of control
same,T/C,"dose: 1500.0 mg/kg/injection, schedule: Q01DX001 (ip), vehicle: saline",150 % of control
same,T/C,"dose: 1500.0 mg/kg/injection, schedule: Q01DX001 (sc), vehicle: other",107 % of control
same,T/C,"dose: 1500.0 mg/kg/injection, schedule: Q03HX016 (ip), vehicle: saline",96 % of control
same,T/C,"dose: 1500.0 mg/kg/injection, schedule: Q04DX003 (ip), vehicle: saline",180 % of control
same,T/C,"dose: 1500.0 mg/kg/injection, schedule: Q08DX002 (ip), vehicle: saline",164 % of control
same,T/C,"dose: 1500.0 mg/kg/injection, schedule: Q## X024 (ip), vehicle: water",154 % of control
same,T/C,"dose: 1600.0 mg/kg/injection, schedule: Q01DX Z (ip), vehicle: other",150 % of control
same,T/C,"dose: 1750.0 mg/kg/injection, schedule: Q03HX016 (ip), vehicle: saline",102 % of control
same,T/C,"dose: 2000.0 mg/kg/injection, schedule: Q01DX001 (ip), vehicle: other",168 % of control
same,T/C,"dose: 2000.0 mg/kg/injection, schedule: Q01DX001 (sc), vehicle: other",118 % of control
same,T/C,"dose: 2000.0 mg/kg/injection, schedule: Q03HX016 (ip), vehicle: saline",111 % of control
same,T/C,"dose: 2000.0 mg/kg/injection, schedule: Q## X005 (ip), vehicle: saline",104 % of control
